Data reported in patent US20240140947A1, “COMPOUND FOR THE TREATMENT OF CANCER” (priority 2022, published 2024).
Read-outs that look alike come from different tables or passages of the source.

Legend:
[1] = system: phosphorylation of Rb protein at serines 807/811 in MCF7 cells; assay: Phospho-Serine 807/811 Rb ELISA in MCF7 cells; type: cell-based; conditions: Homo sapiens, read-out: IC50 ± SEM, modulation of pRB Serine 807/811
Description: (§1) Cellular CDK activity of Compound 1 and PF-06873600 were assessed in human CCNE1-amplified ovarian cancer cell line model OVCAR3 and human ER+ breast cancer cell line model MCF7 cells. […] OVCAR3 cells were treated overnight with 1 mM hydroxyurea to enrich for G1/S phase cells prior to treatment with inhibitors. Functional effects were measured in a 7-day anti-proliferation assay in one human ovarian cancer (OVCAR3), two human ER+ breast cancer (MCF7 and T47D) and three human non-small cell lung cancer (NCIH2087, NCIH358 and A549) cell line models.
(§2) OVCAR3 or MCF7 cells were seeded at 25,000 cells/well in 100 μL growth media and allowed to adhere at 37° C. with 5% CO2 overnight. OVCAR3 cells were treated overnight with 1 mM hydroxyurea to enrich for G1/S phase cells prior to treatment with inhibitors. The following day, compounds were serially diluted from a 10 mM top dose for an 11-point 3-fold dilution curve in DMSO. Compound 1 and PF-06873600 were intermediately diluted 1:200 into growth media prior to diluting 1:5 on cells for final concentration 10 μM to 0.1 nM in 0.1% DMSO on cells. […] Plates were read in luminescence mode and IC50 values calculated.
(§3) The cellular activity of Compound 1 was evaluated in ER+, HER2− MCF7 cells and CCNE1-amplified ovarian carcinoma. Activity was determined by inhibition of phosphorylation of […]

[2] = system: phosphorylation of Rb protein at serines 807/811 in OVCAR3 cells; assay: Phospho-Serine 807/811 Rb ELISA in OVCAR3 cells; type: cell-based; conditions: Homo sapiens, read-out: IC50 ± SEM, modulation of pRB Serine 807/811
Description: as §1, §2, §3

T47D parental = assay: Cell proliferation assay (CYQUANT, 7 days), T47D parental; type: cell-based; conditions: Homo sapiens, 168 h, read-out: IC50 ± SEM, proliferation inhibition
Description: as §1
(§4) OVCAR3, MCF7, T47D, HCC1428, NCIH2087, NCIH358 or A549cells were seeded 1-3000 cells/well in 96-well plates in growth media containing 10% FBS and cultured overnight at 37° C. 5% CO2. The following day, compounds were serially diluted from a 10 mM top dose for an 11-point 3-fold dilution curve in DMSO. […] CYQUANT Direct Cell Proliferation Assay (Molecular Probes, Eugene, OR) was then performed following manufacturer recommendations to determine the relative viable cell numbers on the Perkin Elmer Envision 2104 Multi Label Reader at 508 nm excitation and 527 nm emission wavelengths. IC50 values were calculated by concentration-response curve fitting utilizing a four-parameter analytical method using GraphPad Prism software.

A549 = assay: Cell proliferation assay (CYQUANT, 7 days), A549; type: cell-based; conditions: Homo sapiens, read-out: IC50 ± SEM, proliferation inhibition
Description: as §1, §4

[3] = Human hepatocyte stability; type: in vitro ADME; conditions: hepatocytes, 0.5 million cells/mL, 37° C., 4 hours, read-out: CLint HHEP: CLint in human hepatocytes (in vitro)
Description: At various time points, samples were taken and analyzed by LC-MS/MS. CLint HHEP was calculated based on loss of parent compound over time using equations discussed in “A novel relay method for determining low-clearance values,” Drug Metab Dispos., 2012; 40(9):1860-5.

[4] = Human plasma protein binding (equilibrium dialysis); type: in vitro ADME; conditions: 6-hour incubation, pH 7.4, read-out: fup: human plasma unbound fraction
Description: Frozen plasma in K3EDTA was purchased from BiolVT and Dulbecco's phosphate buffered saline (DPBS) and HCl were purchased from Sigma. Human plasma unbound fraction (fu r) was determined by equilibrium dialysis using an HTD 96 device (HTDialysis, LLC, Gales Ferry, CT) assembled with 12-14k MWCO membranes. Plasma was thawed and adjusted to pH 7.4 with 1 N HCl prior to use. Dialysis chambers were loaded with 150 μL plasma and 150 μL PBS in the donor and receiver chambers, respectively. The dialysis plate was sealed with a gas-permeable membrane and stored in a 37° C. water-jacked incubator maintained at 75% relative humidity and 5% CO2, on a 100 rpm plate shaker. After a 6-hour incubation, samples were matrix-matched and quench by protein precipitation, followed by LC-MS analysis. A set of satellite samples was included to measure stability after a 6-hour incubation. Incubations were conducted with 4 to 12 replicates. The fup was calculated by dividing the analyte-to-internal standard peak area ratio or analyte concentration in the buffer sample by the signal in the donor sample, corrected for any dilution factors.

[5] = Prediction of human clearance, volume of distribution and elimination half-life; conditions: for Mean Vdss unbound: (mean animal Vdss unbound values): Wistar-Hannover (rat), rat and/or dog, iv; for CLb: predicted total clearance: scaled from CLint HHEP and fub, Q=20 ml/min/kg
Description: To determine and compare the predicted human elimination half-lives, compounds 1-4 were evaluated for their human blood-to-plasma partition ratio (BPR) along with other key in vitro ADME data including metabolic stability in human hepatocytes (CL, nt HHEP).
The predicted total clearance in human (CLb) was first determined based on the in vitro human metabolism data shown below using the equation:
CLb=(Q·fub·CLintHHEP)/[(Q+fub)·CLintHHEP]
(Scaling Clint HHEP from μl/min/M to ml/min/kg based on hepatocellularity (120×10^6/ g liver), g of liver per Kg bodyweight (21g/Kg), assuming hepatocyte binding is negligible and liver blood flow Q=20 ml/min/kg.)
The projected human volume of distribution at steady state in human blood (Vdss_human) was then calculated based on the animal (rat and/or dog) PK data. The Vdss_human was calculated factoring in differences in blood binding across compounds. Due to the high blood-to-plasma partition ratio in Compounds 1 and 4, the corresponding Vdss_human was limited to the blood volume with Vdss_human estimated to be 0.07 L/Kg.
Using the estimates of CLb and Vdss_human, the predicted human elimination half-lives of compounds 1-4 were calculated according to the equation:
Half-life=0.693·Vdss_human/CLb

Row | Structure (SMILES) | IC50 ([1]; MCF7, mean, treated 24 h (overnight)) | IC50 ([2]; OVCAR-3, OVCAR3, mean, treated 1 h after overnight 1 mM hydroxyurea) | IC50 (T47D parental; T47D parental, 7 days, mean) | IC50 (A549; 168 h, A549, 7 days, mean) | hepatocyte CLint at 1 μM [3] | fraction unbound at 6 h [4] | Mean Vdss unbound: (mean animal Vdss unbound values) [5] | (adjusted) predicted t1/2 based on PF-06873600's observed t1/2 ([5]; human) | Vdss—human limited to the blood volume (lower limit) ([5]; human) | Vdss—human: projected volume of distribution (steady state) ([5]; human) | CLb: predicted total clearance ([5]; human) | IC50 ([1]; MCF7, 24 h) | IC50 ([2]; OVCAR-3, 1 h) | IC50 (T47D parental; T47D) | IC50 (A549; A549, 168 h)
1 | C[C@@]1(O)CCC[C@H]1n1c(=O)c(CC(F)F)cc2cnc(NC3CCN(S(N)(=O)=O)CC3)nc21 [Compound 1, 4-({6-(2,2-difluoroethyl)-8-[(1R,2R)-2-hydroxy-2-methylcyclopentyl]-7-oxo-7,8-dihydropyrido[2,3-d]pyrimidin-2-yl}amino)piperidine-1-sulfonamide] | 148 nM | 16.2 nM | 17.6 ± 2.5 nM | 121 ± 10.1 nM | ~2 µL/min/1e6 cells | 0.174 | 8.8 L/kg | 34 h | 0.07 L/kg | 0.019 L/kg L/Kg | 0.011 mL/min/kg |  |  |  | 
2 | C[C@@]1(O)CCC[C@H]1n1c(=O)c(C(F)F)cc2cnc(NC3CCN(S(C)(=O)=O)CC3)nc21 [Compound 2, reference compound] |  |  |  |  | ~2 µL/min/1e6 cells | 0.288 | 2.8 L/kg |  |  | 0.9 L/kg | 1.5 mL/min/kg | 70.6 nM | 21.8 nM | 70.6 ± 14.1 nM | 189 nM
